According to patent US8357350B2, “Annulus fibrosus detection in intervertebral discs using molecular imaging agents” (General Electric Company, priority 2009, dated 2013):

Tests used:
[1] = Fluorescence quantum yield versus Alexa Fluor 555 reference; assay type: physicochemical; settings: highest in FBS among DMSO, MeOH, PBS
Method: Absorbance and fluorescence spectra of the FM fluorophores were measured in PBS and absolute methanol (MeOH) using fiber-optic HR2000 (200-1100 nm) and USB2000FL (350-1000 nm) spectrometers (Ocean Optics, Dunedin, Fla.), respectively. Fluorescence excitation was provided by a 2 mW, 532 nm laser diode. The fluorescence and absorbance spectra of FORMULA II and FORMULA IA were collected in dimethyl sulfoxide (DMSO) and fetal bovine serum (FBS), as well as MeOH and PBS. The quantum yield of FORMULA II and FORMULA IA in DMSO, MeOH, FBS and PBS was measured by comparing the integrated fluorescence emission of the fluorophores in each solvent to the emission of Alexa Fluor 555 (Invitrogen) in PBS (quantum yield=10%) as a reference standard under conditions of matched absorbance at the excitation wavelength. The LogD of each FM fluorophore at pH 7.5 was calculated using Marvin 5.0.3 software (ChemAxon, Budapest, Hungary).

[2] = tested on: intervertebral discs (annulus fibrosus); assay: Intraoperative imaging of the spine in a pig; assay type: in vivo, Yorkshire pig; settings: 0.47 mg/kg IV, 5 h
Method: Imaging was carried out at near infrared wavelenghts using a 400- to 700-nm “white” light (0.5 mW/cm^2) and a 725- to 775-nm NIR fluorescence excitation light (5 mW/cm^2). Fluorescence images were collected using exposure times ranging from 500 to 2000 msec. All images collected for comparison between vehicle-injected control animals and FM fluorophore-injected animals had the same exposure time and normalization. Color video images were collected on a separate optical channel using custom designed software. The excitation and emission LEDs and filter used for the FM fluorophores and Pam800 in the intraoperative imaging system are described as follows. For fluorescence excitation of FM 1-43, FM 2-10, FM 1-43FX and Formula IA, sixty 5-mm 470 nm LEDs ([…], Inc., Kyoto, Japan) fitted with 470±20 nm band pass (BP) excitation filters (Chroma Technology, Rockingham, Vt.) in custom holders were used, which produced a fluence rate on the imaging surface of 0.56 mW/cm^2. For fluorescence excitation of Formula II, FM 4-64, FM 4-64FX and FM 5-95, sixty 5-mm 535 nm LEDs fitted with 525±25 nm BP excitation filters were used, which produced a fluence rate on the imaging surface of 0.34 mW/cm^2. A 610±38 nm BP filter was used to detect fluorescence emission of FM 1-43, FM 2-10, Formula II, FM 1-43FX and Formula IA. To detect fluorescence emission of FM 4-64, FM 4-64FX and FM 5-95 a 720 nm long pass (LP) filter was used. For fluorescence excitation of Pam800, 348 5-mm 760 nm LEDs fitted with 764±17 nm BP excitation filters were used, which produced a fluence rate on the imaging surface of 8.73 mW/cm^2 and fluorescence emission was detected using a 824±24 nm BP emission filter. FORMULA IA was also evaluated in a Yorkshire pig. […] The pig was monitored under anesthesia during the drug incubation period, after which the animal was sacrificed. […] Tissues from mice, rats and pig were preserved for microscopic assessment and localization of fluorescence signal. […] Exposure times were adjusted between 5 and 2000 ms for fluorescence images.

## CCCCN(CCCC)c1ccc(/C=C/c2cc[n+](CCC[N+](C)(C)C)cc2)cc1.[Br-].[Br-] [Formula IA, (E)-4-(4-(dibutylamino)styryl)-1-(3-(trimethylammonio)propyl)pyridinium dibromide]
[1]
  fluorescence quantum yield, times higher in FBS: 5 times
[2]
  contrast in the intervertebral discs of the pig: dramatic positive contrast
  origin of signal within the disc (sagittal and axial sectioning): majority of the signal was emanating from the annulus fibrosus, and not the nucleus pulposus
[2]; fluorescence microscopy vs H&E
  microscopic fluorescence pattern in disc sections: punctate and linear following the lamellae structures of the annulus fibrosus
